Source: ChEMBL document CHEMBL5233217, “Modification of 7-piperazinylquinolone antibacterials to promising anticancer lead compounds: Synthesis and in vitro studies” (Eur J Med Chem, 2020)

Key:
[1] = system: SiHa; assay: Antiproliferative activity against human SiHa cells assessed as cell growth inhibition incubated for 48 hrs by sulforhodamine B assay; type: functional
[2] = system: PANC-1; assay: Antiproliferative activity against human PANC-1 cells assessed as cell growth inhibition incubated for 48 hrs by sulforhodamine B assay; type: functional
[3] = Cytotoxicity against Chinese hamster CHO cells assessed as reduction in cell viability by MTT assay; type: toxicity, cell-based, Cricetulus griseus
[4] = system: HL-60; assay: Cytotoxicity against human HL-60 cells assessed as reduction in cell viability by MTT assay; type: functional, cell-based
[5] = system: SMMC-7721; assay: Antiproliferative activity against human SMMC-7721 cells assessed as reduction in cell viability incubated for 24 hrs by MTT assay; type: functional, cell-based; settings: SMMC-7721, 24 h
[6] = system: SMMC-7721; assay: Antiproliferative activity against human SMMC-7721 cells assessed as reduction in cell viability; type: functional, cell-based
[7] = system: L1210; assay: Antiproliferative activity against mouse L1210 cells assessed as reduction in cell viability; type: functional, cell-based
[8] = system: HL-60; assay: Antiproliferative activity against human HL-60 cells assessed as reduction in cell viability; type: functional, cell-based
[9] = system: Hep 3B2; assay: Antiproliferative activity against human Hep3B cells assessed as reduction in cell viability; type: functional, cell-based
[10] = system: CAPAN-1; assay: Antiproliferative activity against human CAPAN-1 cells assessed as reduction in cell viability; type: functional, cell-based
[11] = system: CAKI-1; assay: Anticancer activity against human CAKI-1 cells assessed as cell growth inhibition; type: functional; settings: pooled result: one value given for 3 cell lines, strains, targets or settings
[12] = Cytotoxicity against Chinese hamster CHO cells assessed as reduction in cell viability incubated for 48 hrs by MTT assay; type: toxicity, cell-based, Cricetulus griseus
[13] = system: HL-60; assay: Cytotoxicity against human HL-60 cells assessed as reduction in cell viability incubated for 48 hrs by MTT assay; type: functional, cell-based; settings: HL-60, 48 h
[14] = system: L1210; assay: Cytotoxicity against mouse L1210 cells assessed as reduction in cell viability incubated for 48 hrs by MTT assay; type: functional, cell-based; settings: L1210, 48 h
[15] = system: LOX IMVI; assay: Anticancer activity against human LOX IMVI cells assessed as cell growth inhibition by sulforhodamine B assay; type: functional
[16] = system: SK-MEL-2; assay: Anticancer activity against human SK-MEL-2 cells assessed as cell growth inhibition by sulforhodamine B assay; type: functional
[17] = system: SK-MEL-5; assay: Anticancer activity against human SK-MEL-5 cells assessed as cell growth inhibition by sulforhodamine B assay; type: functional
[18] = system: UACC-257; assay: Anticancer activity against human UACC-257 cells assessed as cell growth inhibition by sulforhodamine B assay; type: functional
[19] = system: HOP-92; assay: Anticancer activity against human HOP-92 cells assessed as cell growth inhibition by sulforhodamine B assay; type: functional
[20] = system: L1210; assay: Antiproliferative activity against mouse L1210 cells assessed as reduction in cell viability incubated for 48 hrs by MTT assay; type: functional, cell-based; settings: L1210, 48 h
[21] = system: Huh-7; assay: Anticancer activity against human Huh-7 cells assessed as reduction in cell viability incubated for 24 hrs by MTT assay; type: functional, cell-based; settings: Huh-7, 24 h
[22] = system: L1210; assay: Antiproliferative activity against mouse L1210 cells assessed as reduction in cell viability by MTT assay; type: functional, cell-based
[23] = system: SMMC-7721; assay: Antitumor activity against human SMMC-7721 cells assessed as reduction in cell viability by MTT assay; type: functional, cell-based
[24] = system: L1210; assay: Antitumor activity against mouse L1210 cells assessed as reduction in cell viability by MTT assay; type: functional, cell-based
[25] = system: HL-60; assay: Antitumor activity against human HL-60 cells assessed as reduction in cell viability by MTT assay; type: functional, cell-based
[26] = system: Hep 3B2; assay: Antitumor activity against human Hep3B cells assessed as reduction in cell viability by MTT assay; type: functional, cell-based
[27] = system: CAPAN-1; assay: Antitumor activity against human CAPAN-1 cells assessed as reduction in cell viability by MTT assay; type: functional, cell-based
[28] = system: L1210; assay: Anticancer activity against mouse L1210 cells assessed as reduction in cell viability by MTT assay; type: functional, cell-based

Structure (SMILES): CCn1cc(C(=O)O)c(=O)c2cnc(N3CCN(C(=O)CCSc4nnnn4-c4ccc(Br)cc4)CC3)nc21
- GI50 [1]: 0.06 µM
- GI50 [2]: 0.06 µM

Structure (SMILES): COc1ccccc1-c1nnc(CSc2nnc(-c3cn4c5c(c(N6CCN(C)CC6)c(F)cc5c3=O)OC[C@@H]4C)o2)o1
- IC50 [3]: 1 µM
- IC50 [4]: 2.2 µM
- IC50 [5]: 1.3 µM

Structure (SMILES): CCn1cc(-c2nc(SCc3nnc(-c4ccc(F)cc4)o3)n(CN(C)C)n2)c(=O)c2cc(F)c(N3CCN(C)CC3)cc21
- IC50 [6]: 1.5 µM
- IC50 [7]: 1.5 µM
- IC50 [8]: 1.5 µM
- IC50 [9]: 1.5 µM
- IC50 [10]: 1.5 µM

Structure (SMILES): CCn1cc(-c2nnc(SCc3nnc(-c4ccccc4OC)o3)[nH]2)c(=O)c2cc(F)c(N3CCN(C)CC3)cc21
- IC50 [6]: 3.8 µM
- IC50 [7]: 3.8 µM
- IC50 [8]: 3.8 µM
- IC50 [9]: 3.8 µM
- IC50 [10]: 3.8 µM

Structure (SMILES): CCn1cc(C(=O)O)c(=O)c2cnc(N3CCN(C(=O)CCSc4nnnn4-c4ccc(F)c(F)c4F)CC3)nc21
- GI50 [1]: 0.06 µM
- GI50 [2]: 0.06 µM

Structure (SMILES): C=C1CC(CN2CCN(c3cc4c(cc3F)c(=O)c(C(=O)O)cn4CC)CC2)(c2ccc(OC)cc2)OC1=O (stereo unspecified)
- GI50 [11]: 6.46 µM

Structure (SMILES): COc1ccccc1-c1nnc(CSc2nnc(-c3cn4c5c(c(N6CC[N+](C)(C)CC6)c(F)cc5c3=O)OC[C@@H]4C)o2)o1
- IC50 [3]: 0.41 µM
- IC50 [4]: 1.6 µM
- IC50 [5]: 0.82 µM

Structure (SMILES): CC1COc2c(N3CCN(C)CC3)c(F)cc3c(=O)c(-c4n[nH]c(=S)n4/N=C/c4ccccc4O)cn1c23 (stereo unspecified)
- IC50 at 48 h [12]: 10.5 µM
- IC50 [13]: 10.5 µM
- IC50 [14]: 10.5 µM

Structure (SMILES): COc1ncnc(NS(=O)(=O)c2ccc(/N=C3\C(=O)N(CN4CCN(c5c(F)cc6c(=O)c(C(=O)O)cn(C7CC7)c6c5OC)CC4C)c4ccc(Br)cc43)cc2)c1OC (stereo unspecified)
- GI50 [15]: < 10 µM
- GI50 [16]: < 10 µM
- GI50 [17]: < 10 µM
- GI50 [18]: < 10 µM
- GI50 [19]: 0.176 µM

Structure (SMILES): CC1COc2c(N3CCN(C)CC3)c(F)cc3c(=O)c(-c4nn(CN(C)C)c(=S)n4/N=C/c4ccccc4O)cn1c23 (stereo unspecified)
- IC50 at 48 h [12]: 0.14 µM
- IC50 [13]: 0.14 µM
- IC50 [14]: 0.14 µM

Structure (SMILES): C[C@H]1COc2c(N3CCN(C)CC3)c(F)cc3c(=O)c(-c4nn5c(-c6cn(C7CC7)c7cc(N8CCNCC8)c(F)cc7c6=O)nnc5s4)cn1c23
- IC50 [20]: 1.5 µM

Structure (SMILES): CCn1cc(-c2nn(CN(C)C)c(=S)o2)c(=O)c2cc(F)c(N3CCN(C)CC3)cc21
- IC50 [9]: 8.4 µM

Structure (SMILES): Nc1nnc(-c2cn(C3CC3)c3cc(N4CCNCC4)c(F)cc3c2=O)s1
- IC50 [21]: 25.8 µM

Structure (SMILES): CCN1CCN(c2cc3c(cc2F)c(=O)c(-c2nnc(S)n2N)cn3C2CC2)CC1
- IC50 [22]: ≤ 50 µM

Structure (SMILES): COc1ccc(-c2csc3nc(-c4cn5c6c(c(N7CCN(C)CC7)c(F)cc6c4=O)OCC5C)nn23)cc1 (stereo unspecified)
- IC50 [23]: 26.7 µM
- IC50 [24]: 26.7 µM
- IC50 [25]: 26.7 µM
- IC50 [26]: 26.7 µM
- IC50 [27]: 26.7 µM

Structure (SMILES): O=c1c(-c2n[nH]c3cc(-c4ccc(O)c(O)c4)nn23)cn(C2CC2)c2cc(N3CCNCC3)c(F)cc12
- IC50 [28]: 0.14 µM

Structure (SMILES): COc1cc(/C=N/n2c(-c3cn4c5c(c(N6CCN(C)CC6)c(F)cc5c3=O)OCC4C)n[nH]c2=S)ccc1O (stereo unspecified)
- IC50 at 48 h [12]: 10.5 µM
- IC50 [13]: 10.5 µM
- IC50 [14]: 10.5 µM

Structure (SMILES): CCn1cc(-c2nnc(SCc3nnc(-c4ccc(F)cc4)o3)[nH]2)c(=O)c2cc(F)c(N3CCN(C)CC3)cc21
- IC50 [6]: 3.8 µM
- IC50 [7]: 3.8 µM
- IC50 [8]: 3.8 µM
- IC50 [9]: 3.8 µM
- IC50 [10]: 3.8 µM

Structure (SMILES): CCN1CCN(c2cc3c(cc2F)c(=O)c(-c2nn4c(-c5cn(C6CC6)c6cc(N7CCN(CC)CC7)c(F)cc6c5=O)nnc4s2)cn3C2CC2)CC1
- IC50 [22]: 1.2 µM
